Assay [1] deals with T1, BlaC I105R (Mycobacterium tuberculosis, UniProt P9WKD3, I117R). It counts as biochemical. To be noted: pH 6.4.
Assay [2] has as its target T1, BlaC I105R. Format: biochemical.

Values joined by “and” are separate entries in the source; they are usually repeats but may differ in a detail not shown here. Identical values can stand only once.

For `CC1(C)S[C@@H]2[C@H](NC(=O)[C@H](N)c3ccccc3)C(=O)N2[C@H]1C(=O)O` [ampicillin], on BlaC I105R [1], the kcat (commonly the maximal rate divided by the concentration of active sites) stood at 3.4 ± 0.1 s⁻¹.

With `NC(=O)[C@@H]1CC[C@@H]2CN1C(=O)N2OS(=O)(=O)O` [avibactam], at BlaC I105R [2], the “in vitro sensitivity to inhibition compared with wild type” value is recorded as “less sensitive”; the k2 is 9.5 and 9.5 10^−2 s^−1; the k-2 was 0.1 and 0.1 10^−3 s^−1.

For `CC1(C)S[C@@H]2[C@H](NC(=O)C(C(=O)O)c3ccccc3)C(=O)N2[C@H]1C(=O)O` (stereo partly drawn) [carbenicillin], at BlaC I105R [1], the kcat is 0.27 ± 0.01 s⁻¹.

For the compound `O=C(O)[C@H]1/C(=C/CO)O[C@@H]2CC(=O)N21` [clavulanic acid], on BlaC I105R [2], the “in vitro sensitivity to inhibition compared with wild type” value is recorded as “less sensitive”; the k1 amounted to 1e+06 M⁻¹ s⁻¹; the k2 was 4.6 and 4.6 10^−2 s^−1; the k3 was 2 and 2 10^−3 s^−1.

With `O=C(Cc1cccs1)N[C@@H]1C(=O)N2C(C(=O)O)=C(/C=C/c3ccc([N+](=O)[O-])cc3[N+](=O)[O-])CS[C@H]12` [nitrocefin], the kcat on BlaC I105R [1] amounted to 24 ± 2 s⁻¹. For the same compound, at BlaC I105R [2], the ka was found to be 180000 M⁻¹ s⁻¹; the kc is 40 s⁻¹ and 57 s⁻¹.

Values taken from publication PMC12274840 (The Journal of Biological Chemistry, 2025).
